Where two headings read alike, the source gives them in different places.
Columns and labels:
OVCAR-3 [1] = conditions: five-dose
HCT-15 = assay: JFCR-39 cytotoxicity screen; type: cell-based
[2] = system: normal cardiac myoblast H9c2 cells; conditions: rat
Experimental: Briefly, 96 well microtiter plates were inoculated with the specified human cancer cell lines in RPMI 1640 medium containing 5% fetal bovine serum and 2 mM L-glutamine at the specified plating densities. The microtiter plates were incubated at 37°C, 5% CO2, and 100% relative humidity for 24 h. The test compounds were solubilized in DMSO at 400-fold the desired final maximum test concentration, diluted with complete medium containing gentamicin and added to the wells of the microtiter plates to achieve the final desired compound concentration, then incubated for an additional 48 h at the same incubation conditions. The media were removed, the cells were fixed then stained with sulforhodamine B and the unbound dye was removed by washing with acetic acid. The bound dye was resolubilized with trizma base and the absorbance at 515 nm was measured. Cells were stained with the WST-1 cell proliferation reagent instead of sulforhodamine B in some experiments and absorbance were measured at 440 nm. The three dose response parameters GI50, TGI and LC50 were calculated for each experimental compound as follows [48]: For values where Ti ≥ Tz the formula is [ (Ti-Tz) / (C-Tz)] x 100 For values where Ti < Tz the formula is [ (Ti-Tz) / Tz] x 100 Where Ti is the absorbance of the solubilized Sulforhodamine B (SRB) (representing the number of cells) of the five different concentrations of the compound used in the test, Tz is the absorbance of the SRB at time zero, and C is the absorbance of the SRB of the control growth.

OVCAR-4 [3] = assay: JFCR-39 cytotoxicity screen; type: cell-based
OVCAR-5 = assay: NCI-60 cytotoxicity screen; type: cell-based
SF-295 = assay: JFCR-39 cytotoxicity screen; type: cell-based
MKN45 = assay: JFCR-39 cytotoxicity screen; type: cell-based
MDA-MB-231/ATCC = assay: NCI-60 cytotoxicity screen; type: cell-based
RXF-631L = assay: JFCR-39 cytotoxicity screen; type: cell-based
OVCAR-3 [4] = conditions: JFCR
[5] = system: NCI 60 human cancer cell lines; assay: NCI-60 screen, means, ranges and selectivity over panels; type: cell-based; conditions: for GI50: Homo sapiens
Experimental: Both NSC745885 and NSC757963 satisfied the pre-determined threshold inhibition criteria of the NCI-60 One-Dose Screening, so they were tested against the panels of 60 cancer cell lines of NCI (NCI-60) and 39 cancer cell lines of JFCR (JFCR-39), each cell line was tested at five small doses of our compounds. Results are expressed as the 50% growth inhibition concentration (GI50), the 50% lethal concentration (LC50) and the total growth inhibition (TGI), compared to the values of untreated control cells.
To characterize the selectivity of NSC745885 and NSC757963 further among the different types of cancer, we determined their selectivity ratios towards each cell line subpanel used in the cytotoxicity experiments. […] The promising activity of this compound is evident from the small mean GI50 values. […] The strongest activity was towards the leukemia subpanel and the least one was towards the colon cancer subpanel. […] The strongest activity was towards the melanoma subpanel and the least one was towards the colon cancer subpanel.
All cell lines were published before.

HCT-116 = assay: JFCR-39 cytotoxicity screen; type: cell-based
NCI-H522 = assay: NCI-60 cytotoxicity screen; type: cell-based
ACHN = assay: JFCR-39 cytotoxicity screen; type: cell-based
SF-539 = assay: NCI-60 cytotoxicity screen; type: cell-based
M14 = assay: NCI-60 cytotoxicity screen; type: cell-based
CCRF-CEM = assay: NCI-60 cytotoxicity screen; type: cell-based
OVCAR-4 [6] = assay: NCI-60 cytotoxicity screen; type: cell-based
EKVX = assay: NCI-60 cytotoxicity screen; type: cell-based
HS 578T = assay: NCI-60 cytotoxicity screen; type: cell-based
U251 = assay: JFCR-39 cytotoxicity screen; type: cell-based
[7] = system: NF-κB p65 subunit translocation in OVCAR-3 cells; assay: NF-κB inhibition by immunocytochemical fluorescent staining; type: cell-based, human; conditions: 5 μM
Experimental: Inhibition of NF-κB was detected according to Ataie-Kachoie et al.. Briefly, each group of tested cells were seeded on coverslips treated with HCl and ethanol, and autoclaved prior to use. Immunostaining of the p65 subunit of NF-κB was done by permeabilizing the cells with Triton […], then by treating the cells with anti-NF-κB p65 rabbit monoclonal primary antibody [E379] Abcam # ab32536, followed by Alexa Fluor® 488 Donkey anti-rabbit IgG secondary antibody Biolegend # 406416. Nuclei of cells were stained with 4',6-diamidino-2-phenylindole (DAPI). Images were acquired using fluorescence microscope. Tested cells were divided into five groups which are no treatment control, no primary antibody control, PDTC (50 μM) treated control, NSC745885 (5 μM) and NSC757963 (5 μM) treated controls.

PC-3 = assay: NCI-60 cytotoxicity screen; type: cell-based
[8] = Homo sapiens, read-out: LC50 (the source's name)
[9] = Homo sapiens, Fig 7, read-out: mean log10 of the GI50 values (converted)
[10] = Homo sapiens, five-dose, read-out: GI50
[11] = Homo sapiens, five-dose, read-out: LC50 (the source's name)

## O=C1c2ccccc2C(=O)c2c1ccc1nsnc21 [NSC745885, anthra[1,2-c][1,2,5]thiadiazole-6,11-dione]
OVCAR-3 [1]
  TGI: 2460 nM
HCT-15
  TGI: 3400 nM
HCT-15; Homo sapiens
  GI50: 1800 nM
HCT-15; [8]
  CC50: 6300 nM
[2]
  cytotoxicity towards normal cardiac myoblast H9c2 cells: significantly less cytotoxic effects on H9c2 cells at higher doses than doxorubicin
OVCAR-4 [3]
  TGI: 2900 nM
OVCAR-4 [3]; Homo sapiens
  GI50: 1500 nM
OVCAR-4 [3]; [8]
  CC50: 5500 nM
OVCAR-5; [9]
  GI50: 2040 nM
OVCAR-5; [10]
  GI50: 1910 nM
OVCAR-5; [11]
  CC50: 8840 nM
OVCAR-5; five-dose
  TGI: 4110 nM
SF-295
  TGI: 3300 nM
SF-295; Homo sapiens
  GI50: 1800 nM
SF-295; [8]
  CC50: 5900 nM
MKN45
  TGI: 9800 nM
MKN45; Homo sapiens, MKN-45
  GI50: 3100 nM
MKN45; Homo sapiens, MKN-45, read-out: LC50 (the source's name)
  CC50: 39000 nM
MDA-MB-231/ATCC; [9]
  GI50: 2140 nM
MDA-MB-231/ATCC; [10]
  GI50: 1750 nM
MDA-MB-231/ATCC; [11]
  CC50: > 100000 nM
MDA-MB-231/ATCC; five-dose
  TGI: 5900 nM
RXF-631L
  TGI: 4900 nM
RXF-631L; Homo sapiens
  GI50: 2300 nM
RXF-631L; [8]
  CC50: 12000 nM
OVCAR-3 [4]
  TGI: 2000 nM
[5]
  selectivity ratios of the NCI subpanels other than leukemia: less than 3
[5]; Fig 7, read-out: MG-MID of mean log10 GI50 (converted)
  GI50: 2400 nM
[5]; NCI Breast Cancer, read-out: Mean GI50 of subpanel
  GI50: 1540 nM
[5]; NCI CNS Cancer, read-out: Mean GI50 of subpanel
  GI50: 1910 nM
[5]; NCI Colon Cancer, read-out: Mean GI50 of subpanel
  GI50: 7230 nM
[5]; NCI Leukemia, read-out: Mean GI50 of subpanel
  GI50: 966 nM
[5]; NCI Melanoma, read-out: Mean GI50 of subpanel
  GI50: 1650 nM
[5]; NCI Non-Small Cell Lung Cancer, read-out: Mean GI50 of subpanel
  GI50: 5370 nM
[5]; NCI Ovarian Cancer, read-out: Mean GI50 of subpanel
  GI50: 2240 nM
[5]; NCI Prostate Cancer, read-out: Mean GI50 of subpanel
  GI50: 2450 nM
[5]; NCI Renal Cancer, read-out: Mean GI50 of subpanel
  GI50: 3650 nM
[5]; all NCI subpanels, read-out: mean GI50 values of the NCI 60 subpanels, range
  GI50: 970 to 7200 nM
[5]; equivalent to MID, read-out: Mean GI50 of all NCI-60 cell line panels
  GI50: 3230 nM
[5]; five-dose, read-out: NCI-60 GI50 values, range over cell lines
  GI50: 160 to 17400 nM
[5]; NCI Breast Cancer
  Selectivity ratio: 2.1
[5]; NCI CNS Cancer
  Selectivity ratio: 1.69
[5]; NCI Colon Cancer
  Selectivity ratio: 0.45
[5]; NCI Leukemia
  Selectivity ratio: 3.35
[5]; NCI Melanoma
  Selectivity ratio: 1.96
[5]; NCI Non-Small Cell Lung Cancer
  Selectivity ratio: 0.6
[5]; NCI Ovarian Cancer
  Selectivity ratio: 1.44
[5]; NCI Prostate Cancer
  Selectivity ratio: 1.32
[5]; NCI Renal Cancer
  Selectivity ratio: 0.89
HCT-116
  TGI: 3000 nM
HCT-116; Homo sapiens
  GI50: 1600 nM
HCT-116; [8]
  CC50: 5800 nM
NCI-H522; [9]
  GI50: 2240 nM
NCI-H522; [10]
  GI50: 1660 nM
NCI-H522; [11]
  CC50: 9310 nM
NCI-H522; five-dose
  TGI: 3930 nM
ACHN
  TGI: 3800 nM
ACHN; Homo sapiens
  GI50: 1900 nM
ACHN; [8]
  CC50: 7600 nM
SF-539; [9]
  GI50: 1480 nM
SF-539; [10]
  GI50: 1460 nM
SF-539; [11]
  CC50: 5910 nM
SF-539; five-dose
  TGI: 2940 nM
M14; [9]
  GI50: 2290 nM
M14; [10]
  GI50: 2150 nM
M14; [11]
  CC50: > 100000 nM
M14; five-dose
  TGI: 4850 nM
CCRF-CEM; [9]
  GI50: 1550 nM
CCRF-CEM; [10]
  GI50: 1080 nM
CCRF-CEM; [11]
  CC50: > 100000 nM
CCRF-CEM; five-dose
  TGI: 4100 nM
OVCAR-4 [6]; [9]
  GI50: 575 nM
OVCAR-4 [6]; [10]
  GI50: 650 nM
OVCAR-4 [6]; [11]
  CC50: 5570 nM
OVCAR-4 [6]; Homo sapiens, single dose 10 μM, read-out: growth inhibition
  inhibition at 10 µM: 94.4%
OVCAR-4 [6]; five-dose
  TGI: 2170 nM
EKVX; [9]
  GI50: 1860 nM
EKVX; [10]
  GI50: 1550 nM
EKVX; [11]
  CC50: 7660 nM
EKVX; five-dose
  TGI: 3450 nM
HS 578T; HS 578T, five-dose
  TGI: 5020 nM
HS 578T; Homo sapiens, Hs-578T, HS578T, Fig 7, read-out: mean log10 of the GI50 values (converted)
  GI50: 2630 nM
HS 578T; Homo sapiens, HS 578T, five-dose, read-out: GI50
  GI50: 1410 nM
HS 578T; Homo sapiens, HS 578T, five-dose, read-out: LC50 (the source's name)
  CC50: 56000 nM
U251
  TGI: 3100 nM
U251; Homo sapiens, U-251
  GI50: 1600 nM
U251; Homo sapiens, U-251, read-out: LC50 (the source's name)
  CC50: 5800 nM
[7]
  nuclear translocation of the NF-κB p65 subunit: significantly capable of preventing the nuclear translocation of the NF-κB p65 subunit
PC-3; [9]
  GI50: 3160 nM
PC-3; [10]
  GI50: 3230 nM
PC-3; [11]
  CC50: > 100000 nM
PC-3; five-dose
  TGI: >100000 nM

— PMC4839570, “Novel Anthra[1,2-c][1,2,5]Thiadiazole-6,11-Diones as Promising Anticancer Lead Compounds: Biological Evaluation, Characterization & Molecular Targets Determination” (PLoS ONE, 2016)
